Source: patent US20070043011A1, “Substituted benzanilide compound and noxious organism controlling agent” (priority 2003, published 2007)
Where two headings read alike, the source gives them in different places.

How the values were obtained:
Type in all cases: in vivo
[1] = tested on: diamondback moths (Plutella xylostella); assay: Insecticidal test against diamondback moth (leaf dip); conditions: foliar, 144 h, read-out: insecticidal rate (rate of dead insects)
Method: (§1) A 10% emulsifiable concentrate (depending on the compounds, 25% wettable powder was applied for the test) of the compound of the present invention was diluted with water containing a spreading agent to prepare a chemical solution with a concentration of 100 ppm. To the chemical solution was dipped leaves of Chinese olive for about 10 seconds, and after air-drying, they were placed in a laboratory dish, then, 10 diamondback moths (Plutella xylostella) with second instar larvae per the dish were released therein, and the dish was covered with a lid having holes and contained at a thermostat chamber at 25° C. A number of dead insect(s) after 6 days was counted and a rate of dead insects was calculated in the same manner as in Test Example 1. Incidentally, the test was carried out with two districts.

[2] = tested on: Common cutworms (Spodoptera litura); assay: Insecticidal test against common cutworm (leaf dip); conditions: foliar, 144 h, read-out: insecticidal rate (rate of dead insects)
Method: as §1, with “10 Common cutworms (Spodoptera litura)” for “10 diamondback moths (Plutella xylostella)”, “calculated by” for “calculated in”, “the following calculation formula.” for “the same manner as in Test Example 1.”, “districts. Rate of dead insects (%)=(Number of dead insects/Number of released insects)×100” for “districts.”

[3] = tested on: Common cutworm (Spodoptera litura); assay: Insecticidal test (comparative test) against common cutworm, third instar larvae; conditions: leaf dip, counted after 6 days
Method: 10% emulsifiable concentrates of the compound of the present invention and comparative compound were diluted with water containing a spreading agent to prepare chemical solutions with a predetermined concentration. To the chemical solutions was dipped leaves of Chinese olive for about 10 seconds, and after air-drying, they were placed in a laboratory dish, then, 7 Common cutworm (Spodoptera litura) with third instar larvae per the dish were released therein, and the dish was covered with a lid having holes and contained at a thermostat chamber at 25° C. Artificial feed (1 cm^3) was added after 2 days, a number of dead insect(s) was counted after 6 days and a rate of dead insects was calculated by the following calculation formula. Incidentally, the test was carried out with two districts. Rate of dead insects (%)=(Number of dead insects/Number of released insects)×100

[4] = 100 ppm, leaf dip, second instar larvae, after 6 days, 25° C.

Row | Structure (SMILES) | pest or weed control at 100 ppm [1] | pest or weed control at 100 ppm [2] | Rate of dead insects ([3]; concentration 33 ppm) | pest or weed control at 100 ppm [1, 4] | pest or weed control at 100 ppm [2, 4] | other results
1 | Cc1cc(C(O)(c2ccc3c(c2)OC(F)(F)C(F)(F)O3)C(F)(F)F)ccc1NC(=O)c1cccc(I)c1C(=O)NC(C)C (stereo not shown) [1-028, N^1-[4-[2,2,2-trifluoro-1-hydroxy-1-(2,2,3,3-tetrafluoro-1,4-dioxa-2,3-dihydronaphthalen-6-yl)ethyl]-2-methylphenyl]-3-iodo-N^2-isopropylphthalic diamide] | 100% | ≥ 80% | – | – | – | –
2 | CSCC(C)NC(=O)c1c(I)cccc1C(=O)Nc1ccc(C(O)(c2ccc(Cl)cc2)C(F)(F)F)cc1C (stereo not shown) [1-036] | – | – | 100% | – | – | Rate of dead insects ([3]; concentration 0.1 ppm): 14.3%; Rate of dead insects ([3]; concentration 0.3 ppm): 28.6%; Rate of dead insects ([3]; concentration 1 ppm): 85.7%; Rate of dead insects ([3]; concentration 3 ppm): 100%; Rate of dead insects ([3]; concentration 10 ppm): 100%
3 | CSCC(C)(C)NC(=O)c1c(I)cccc1C(=O)Nc1ccc(C(O)(c2ccc(Cl)cc2)C(F)(F)F)cc1C (stereo not shown) [1-084] | – | – | 100% | – | – | Rate of dead insects ([3]; concentration 0.3 ppm): 0%; Rate of dead insects ([3]; concentration 1 ppm): 21.3%; Rate of dead insects ([3]; concentration 3 ppm): 71.4%; Rate of dead insects ([3]; concentration 10 ppm): 100%
4 | Cc1cc(C(O)(c2ccc(Cl)cc2)C(F)(F)F)ccc1NC(=O)c1cccc(I)c1C(=O)NC(C)(C)CS(C)(=O)=O (stereo not shown) [1-087] | – | – | 100% | – | – | Rate of dead insects ([3]; concentration 0.1 ppm): 0%; Rate of dead insects ([3]; concentration 0.3 ppm): 21.3%; Rate of dead insects ([3]; concentration 1 ppm): 71.4%; Rate of dead insects ([3]; concentration 3 ppm): 100%; Rate of dead insects ([3]; concentration 10 ppm): 100%
5 | CSCC(C)(C)NC(=O)c1c(I)cccc1C(=O)Nc1ccc(C(O)c2ccc(Cl)cc2)cc1C (stereo not shown) [Comparative compound A, reference compound] | – | – | 0% | – | – | –
6 | Cc1cc(C(O)(c2ccc(OC(F)(F)F)cc2)C(F)(F)F)ccc1NC(=O)c1cccc(I)c1C(=O)NC(C)C (stereo not shown) [Compound No. 1-009, N^1-[4-[2,2,2-trifluoro-1-hydroxy-1-(4-trifluoromethoxyphenyl)ethyl]-2-methylphenyl]-3-iodo-N^2-isopropylphthalic diamide] | 100% | ≥ 80% | – | – | – | –
7 | Cc1cc(C(O)(c2ccc(OS(C)(=O)=O)cc2)C(F)(F)F)ccc1NC(=O)c1cccc(I)c1C(=O)NC(C)C (stereo not shown) [Compound No. 1-015, N^1-[4-[2,2,2-trifluoro-1-hydroxy-1-(4-methanesulfonyloxyphenyl)ethyl]-2-methylphenyl]-3-iodo-N^2-isopropylphthalic diamide] | 100% | ≥ 80% | – | – | – | –
8 | Cc1cc(C(O)(COc2ccc(Cl)cc2)C(F)(F)F)ccc1NC(=O)c1cccc(I)c1C(=O)NC(C)C (stereo not shown) [Compound No. 2-004, N^1-[4-[2-(4-chlorophenoxy)-1-hydroxy-1-trifluoromethylethyl]-2-methylphenyl]-3-iodo-N^2-isopropylphthalic diamide] | – | – | – | 100% | ≥ 80% | –
9 | Cc1cc(C(O)(C(F)(F)F)C(F)(F)Oc2ccc(Cl)cc2)ccc1NC(=O)c1cccc(I)c1C(=O)NC(C)C (stereo not shown) [Compound No. 2-008, N^1-[4-[2-(4-chlorophenoxy)-2,2-difluoro-1-hydroxy-1-trifluoromethylethyl]-2-methylphenyl]-3-iodo-N^2-isopropylphthalic diamide] | – | – | – | 100% | ≥ 80% | –
10 | Cc1cc(C(O)(C=Cc2ccc(Cl)cc2)C(F)(F)F)ccc1NC(=O)c1cccc(I)c1C(=O)NC(C)C (stereo not shown) [Compound No. 2-018, N^1-[4-[3-(4-chlorophenyl)-1-hydroxy-1-trifluoromethyl-2-propenyl]-2-methylphenyl]-3-iodo-N^2-isopropylphthalic diamide] | – | – | – | 100% | ≥ 80% | –
11 | COC(c1ccc(Cl)cc1)(c1ccc(NC(=O)c2cccc(I)c2C(=O)NC(C)C)c(C)c1)C(F)(F)F (stereo not shown) [Compound No. 3-002, N^1-[4-[1-(4-chlorophenyl)-2,2,2-trifluoro-1-methoxyethyl]-2-methylphenyl]-3-iodo-N^2-isopropylphthalic diamide] | 100% | ≥ 80% | – | – | – | –
12 | Cc1cc2c(cc1NC(=O)c1cccc(I)c1C(=O)NC(C)C)OC(F)(F)C2(O)C(F)(F)F (stereo not shown) [Compound No. 4-002, N^1-(2,2-difluoro-3-hydroxy-5-methyl-3-trifluoromethyl-2,3-dihydrobenzofuran-6-yl)-3-iodo-N^2-isopropylphthalic diamide] | – | – | – | 100% | ≥ 80% | –
